Source: US7285556B2, “Thienopyrimidine-based inhibitors of the src family” (Board of Regents, The University of Texas Systems, priority 2000, dated 2007)

Each compound was assayed against T1, Csk (Homo sapiens, UniProt P41240) (assay: Csk tyrosine kinase activity, poly E4Y and 32P-ATP). Conditions: poly E4Y and 32P-ATP.
T1 construct: GST (glutathione-S-transferase) (N); made in house; host or cells: E. coli (pGEX vector)
Format: biochemical
Experimental: Recombinant human Src was expressed using the baculovirus-insect cell system and purified as published (Budde et al., 1993 and 2000). Recombinant Csk and the FGF receptor (FGFr) were expressed as glutathione-S-transferase fusion proteins using the pGEX expression vector and E. coli, and purified as described (Sun & Budde, 1995).
The tyrosine kinase activity of Src, Csk and FGFr was determined using poly E4Y and ^32P-ATP. Briefly, enzymes were assayed in a reaction mixture consisting of 0.15 M EPPS-NaOH (pH 8.0) with 6 mM MgCl2, 0.2 mM γ^32P-ATP (0.2-0.4 mCi/μmol), 10% glycerol, 0.1% Triton X-100, and poly E4Y. Poly E4Y is a synthetic peptide whose phosphorylation is measured in this assay by the addition of the radioactively labeled phosphate from the ATP (Budde et al., 1995). […] When ATP was varied (0, 50, 100 and 250 μM), poly E4Y was kept constant at 150 μg/ml.

T1 sequence (P41240 whole entry, species assumed): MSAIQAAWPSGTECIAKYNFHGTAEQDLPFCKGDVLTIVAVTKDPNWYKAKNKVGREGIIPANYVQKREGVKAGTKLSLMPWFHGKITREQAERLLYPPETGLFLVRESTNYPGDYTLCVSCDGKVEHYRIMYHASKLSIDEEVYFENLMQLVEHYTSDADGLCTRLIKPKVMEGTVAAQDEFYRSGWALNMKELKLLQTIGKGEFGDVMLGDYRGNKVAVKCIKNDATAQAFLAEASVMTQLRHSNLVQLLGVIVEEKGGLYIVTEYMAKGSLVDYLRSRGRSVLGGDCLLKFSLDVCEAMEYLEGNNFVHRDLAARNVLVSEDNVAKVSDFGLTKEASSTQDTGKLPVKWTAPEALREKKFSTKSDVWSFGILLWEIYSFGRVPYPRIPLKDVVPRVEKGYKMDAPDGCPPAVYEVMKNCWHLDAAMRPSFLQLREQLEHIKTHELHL

`COc1cc(C(O)c2sc3c(NN=Cc4cccnc4)ncnc3c2C)cc(OC)c1OC` (stereo not shown) [Compound 479, 3-Pyridinecarboxaldehyde(6-(1-hydroxy-1-[3,4,5-trimethoxyphenyl])methyl-7-methylthieno[3,2-d]pyrimidin-4-yl)hydrazone] and `COc1cc(C(O)c2sc3c(NN=Cc4cccs4)ncnc3c2C)cc(OC)c1OC` (stereo not shown) [Compound 481, 2-Thiophenecarboxaldehyde(6-(1-hydroxy-1-[3,4,5-trimethoxyphenyl])methyl-7-methylthieno[3,2-d]pyrimidin-4-yl)hydrazone] cannot be ordered by IC50: over 107 µM for the first, over 106 µM for the second.

`COc1cc(C(O)c2sc3c(NN=Cc4ccc(C(=O)O)cc4)ncnc3c2C)cc(OC)c1OC` (stereo not shown) [Compound 480, 4-Carboxybenzaldehyde(6-(1-hydroxy-1-[3,4,5-trimethoxyphenyl])methyl-7-methylthieno[3,2-d]pyrimidin-4-yl)hydrazone] and `COc1ccc(C=NNc2ncnc3c(C)c(C(O)c4cc(OC)c(OC)c(OC)c4)sc23)cc1O` (stereo not shown) [Compound 482, 3-Hydroxy-4-methoxybenzaldehyde(6-(1-hydroxy-1-[3,4,5-trimethoxyphenyl])methyl-7-methylthieno[3,2-d]pyrimidin-4-yl)hydrazone] cannot be ordered by IC50: over 98.3 µM for the first, over 97.9 µM for the second.

Same assay, conditions: screening assay, 50 μg/ml poly E4Y, 0.2 mM 32P-ATP

`Cc1csc2c(NN=Cc3ccccn3)ncnc12` [Compound 26, 2-Pyridinecarboxaldehyde(7-methylthieno[3,2-d]pyrimidin-4-yl)hydrazone] and `Cc1csc2c(NN=Cc3ccccc3Cl)ncnc12` [Compound 45, 2-Chlorobenzaldehyde(7-methylthieno[3,2-d]pyrimidin-4-yl)hydrazone] cannot be ordered by IC50: over 186 µM for the first, over 165 µM for the second.

`Cc1csc2c(NN=Cc3ccc(C(=O)O)cc3)ncnc12` [Compound 28, 4-Carboxybenzaldehyde(7-methylthieno[3,2-d]pyrimidin-4-yl)hydrazone] and `Cc1csc2c(NN=Cc3cccc(C(=O)O)c3)ncnc12` [Compound 249, 3-Carboxybenzaldehyde(7-methylthieno[3,2-d]pyrimidin-4-yl)hydrazone] cannot be ordered by IC50: over 160 µM for the first, over 160 µM for the second.

`Cc1csc2c(NN=Cc3ncc[nH]3)ncnc12` [Compound 34, 1H-Imidazole-2-carboxaldehyde(7-methylthieno[3,2-d]pyrimidin-4-yl)hydrazone] and `Cc1csc2c(NN=Cc3nccs3)ncnc12` [Compound 40, 2-Thiazolecarboxaldehyde(7-methylthieno[3,2-d]pyrimidin-4-yl)hydrazone] cannot be ordered by IC50: over 194 µM for the first, over 182 µM for the second.

`Cc1csc2c(NN=Cc3ccoc3)ncnc12` [Compound 38, 3-Furancarboxaldehyde(7-methylthieno[3,2-d]pyrimidin-4-yl)hydrazone] and `Cc1csc2c(NN=Cc3ccc(Br)cc3)ncnc12` [Compound 56] cannot be ordered by IC50: over 194 µM for the first, over 144 µM for the second.

`Cc1sc2c(NN=Cc3ccc(F)cc3)ncnc2c1C` [Compound 93, 4-Fluorobenzaldehyde(6,7-dimethylthieno[3,2-d]pyrimidin-4-yl)hydrazone] and `CSc1ccc(C=NNc2ncnc3c(C)csc23)cc1` [Compound 172, 4-(Methylthio)benzaldehyde(7-methylthieno[3,2-d]pyrimidin-4-yl)hydrazone] cannot be ordered by IC50: over 166 µM for the first, over 159 µM for the second.

`Cc1csc2c(NN=Cc3nccn3C)ncnc12` [Compound 101, 1-Methyl-1H-imidazole-2-carboxaldehyde(7-methylthieno[3,2-d]pyrimidin-4-yl)hydrazone] and `CC=NNc1ncnc2c(C)csc12` [Compound 153, Ethanal(7-methylthieno[3,2-d]pyrimidin-4-yl)hydrazone] cannot be ordered by IC50: over 184 µM for the first, over 242 µM for the second.

`Cc1ccsc1C=NNc1ncnc2c(C)csc12` [Compound 119, 3-Methyl-2-thiophenecarboxaldehyde(7-methylthieno[3,2-d]pyrimidin-4-yl)hydrazone] and `CCC=NNc1ncnc2c(C)csc12` [Compound 173, Propanal(7-methylthieno[3,2-d]pyrimidin-4-yl)hydrazone] cannot be ordered by IC50: over 173 µM for the first, over 227 µM for the second.

`CCCOc1ccc(C=NNc2ncnc3c(C)csc23)cc1` [Compound 134, 4-Propoxybenzaldehyde(7-methylthieno[3,2-d]pyrimidin-4-yl)hydrazone] and `CCCOc1cccc(C=NNc2ncnc3c(C)csc23)c1` [Compound 135, 3-Propoxybenzaldehyde(7-methylthieno[3,2-d]pyrimidin-4-yl)hydrazone] cannot be ordered by IC50: over 153 µM for the first, over 153 µM for the second.

`CCCCOc1cccc(C=NNc2ncnc3c(C)csc23)c1` [Compound 139] and `Cc1csc2c(NN=Cc3cccc([N+](=O)[O-])c3)ncnc12` [Compound 144] cannot be ordered by IC50: over 147 µM for the first, over 160 µM for the second.

`CCCC=NNc1ncnc2c(C)csc12` [Compound 174, Butanal(7-methylthieno[3,2-d]pyrimidin-4-yl)hydrazone] and `CCCCC=NNc1ncnc2c(C)csc12` [Compound 175, Pentanal(7-methylthieno[3,2-d]pyrimidin-4-yl)hydrazone] cannot be ordered by IC50: over 213 µM for the first, over 201 µM for the second.

`Cc1csc2c(NN=CC3CC=CCC3)ncnc12` (stereo not shown) [Compound 181, 3-Cyclohexene-1-carboxaldehyde(7-methylthieno[3,2-a]pyrimidin-4-yl)hydrazone] and `CC=CC=NNc1ncnc2c(C)csc12` [Compound 182, E-2-Butenal(7-methylthieno[3,2-d]pyrimidin-4-yl)hydrazone] cannot be ordered by IC50: over 184 µM for the first, over 215 µM for the second.

`N#Cc1ccc(C=NNc2ncnc3c2sc2ncccc23)cc1` [Compound 248] and `Clc1ccc(-c2cc3ncnc(NN=Cc4cccnc4)c3s2)cc1` [Compound 308, 3-Pyridinecarboxaldehyde(6-(4-chlorophenyl)thieno[3,2-d]pyrimidin-4-yl)hydrazone] cannot be ordered by IC50: over 151 µM for the first, over 137 µM for the second.

`C(=NNc1ncnc2cc(-c3ccccc3)sc12)c1cccs1` [Compound 253] and `Clc1cccc(-c2cc3ncnc(NN=Cc4cccs4)c3s2)c1` [Compound 306] cannot be ordered by IC50: over 149 µM for the first, over 135 µM for the second.

`Clc1cccc(-c2cc3ncnc(NN=Cc4cccnc4)c3s2)c1` [Compound 304, 3-Pyridinecarboxaldehyde(6-(3-chlorophenyl)thieno[3,2-d]pyrimidin-4-yl)hydrazone] and `Clc1ccc(-c2cc3ncnc(NN=Cc4cccs4)c3s2)cc1` [Compound 310] cannot be ordered by IC50: over 137 µM for the first, over 135 µM for the second.

`Cc1c(I)sc2c(NN=Cc3cccs3)ncnc12` [Compound 374, 2-Thiophenecarboxaldehyde(6-iodo-7-methylthieno[3,2-d]pyrimidin-4-yl)hydrazone] and `Ic1cc2ncnc(NN=Cc3cccs3)c2s1` [Compound 396, 2-Thiophenecarboxaldehyde(6-iodothieno[3,2-d]pyrimidin-4-yl)hydrazone] cannot be ordered by IC50: over 125 µM for the first, over 129 µM for the second.

`COc1ccc(-c2cc3ncnc(NN=Cc4cccs4)c3s2)cc1` [Compound 407, 2-Thiophenecarboxaldehyde(6-(4-methoxyphenyl)thieno[3,2-d]pyrimidin-4-yl)hydrazone] and `COc1ccc(-c2sc3c(NN=Cc4cccs4)ncnc3c2C)cc1` [Compound 424, 2-Thiophenecarboxaldehyde(6-(4-methoxyphenyl)-7-methylthieno[3,2-d]pyrimidin-4-yl)hydrazone] cannot be ordered by IC50: over 136 µM for the first, over 131 µM for the second.

Compound `COc1ccc(C=NNc2ncnc3c(C)c(/C=C/c4ccccc4)sc23)cc1O` [Compound 450, 3-Hydroxy-4-methoxybenzaldehyde(7-methyl-6-(trans-2-phenylvinyl)-thieno[3,2-d]pyrimidin-4-yl)hydrazone] has an IC50 of over 120 µM.
